Like-named read-outs stand apart in the source and are kept apart here.
How the values were obtained:
[1] = target: T1, CYP3A4 (Homo sapiens, UniProt P08684); assay: Human liver microsomal CYP repression experiment; assay type: in vitro ADME; conditions: for repression on CYP3A4 (in words): conclusion on Table 3; for IC50: mixed human liver microsomes, 5-in-1 probe substrate
T1 construct: incubation system containing human liver microsomes, probe substrates, and co-factors; tissue Corning Inc. or other suppliers; host or cells: mixed (pooled) human liver microsomes
T1 sequence (P08684 whole entry): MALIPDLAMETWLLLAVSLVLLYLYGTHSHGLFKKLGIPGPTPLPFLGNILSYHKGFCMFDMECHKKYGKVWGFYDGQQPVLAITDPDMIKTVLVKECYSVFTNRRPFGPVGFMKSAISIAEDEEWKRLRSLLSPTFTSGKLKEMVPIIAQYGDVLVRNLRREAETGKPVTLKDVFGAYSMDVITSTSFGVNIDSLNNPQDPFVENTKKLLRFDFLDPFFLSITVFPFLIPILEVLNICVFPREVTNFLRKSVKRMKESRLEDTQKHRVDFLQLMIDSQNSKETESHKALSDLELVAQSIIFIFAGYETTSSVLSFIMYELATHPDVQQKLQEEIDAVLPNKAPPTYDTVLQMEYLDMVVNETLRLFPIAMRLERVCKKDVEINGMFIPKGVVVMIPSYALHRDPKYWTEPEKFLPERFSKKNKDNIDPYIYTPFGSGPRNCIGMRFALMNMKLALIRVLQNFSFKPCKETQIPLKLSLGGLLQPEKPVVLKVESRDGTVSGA
Protocol: The purpose of the research project was to evaluate the repression of the test sample on human liver microsomal cytochrome P450 isoenzyme (CYP3A4) using a 5-in-1 probe substrate of CYP isoenzyme.
Mixed human liver microsomes (HLM) were purchased from Corning Inc. (Steuben, New York, USA) or other suppliers and stored at temperatures below -70° C. before use.
The diluted series concentration of the test sample was added to the incubation system containing human liver microsomes, probe substrates, and co-factors of the circulating system, and the control without the test sample but with solvent was used as the enzyme activity control (100%). The concentration of metabolites produced by the probe substrate in the sample was determined by liquid chromatography-tandem mass spectrometry (LC-MS/MS). Non-linear regression analysis of the mean percent activity of the test sample versus concentration was performed using SigmaPlot (V. 11). The IC50 values were calculated by a three- or four-parameter inverse logarithmic equation.

[2] = tested on: MMTV promoter luciferase reporter in HeLa cell line (GR transcription activation); assay: MMTV transcription activation activity, luciferase reporter gene screening system (MMTV_GR transcription activation experiment); assay type: cell-based; conditions: Homo sapiens
Excerpt: The promoter of mouse mammary tumor virus (MMTV) contains specific binding sites for activating GRs (GREs). To determine the activity of the compounds, a reporter gene (luciferase) was inserted after the MMTV promoter, and this construct was expressed in a stable manner in the genome of the HeLa cell line. MMTV promoter was activated by the test compounds to induce the expression of luciferase, and its activity was detected by luminescence measurement.
• [0442] 1) All the culture media were carefully aspirated, the cell layer was rinsed gently with an appropriate amount of DPBS, and then aspirated. • [0443] 2) An appropriate amount of 0.05% Typsine EDTA was added and incubated in a CO2 incubator for 3-5 minutes to digest the cells. • [0444] 3) The cells were resuspended with an appropriate amount of cell culture medium. • [0445] 4) The amount of cells required was calculated, and the cell concentration was 4×10^3 cells/well. • [0446] 5) The cell suspension was diluted with appropriate cell culture medium. • [0447] 6) Cell suspension was dispensed into a disposable sterile loading slot. • [0448] 7) Inoculated 30 µL per well into a 384-well plate. • [0449] 8) The cell plate was placed in a 37° C. 5% CO2 incubator for 18-24 hours.
Compounds were diluted with DMSO to 1 mM, 0.25 mM, 0.0625 mM, 0.015625 mM, 0.0039 mM, 0.0009765 mM, 0.000244 mM, 0.000061 mM, 0.00001526 mM and 0.0000038125 mM, then diluted 25-fold with serum culture medium treated with activated carbon, and finally 4x concentration compound experimental plate was obtained, prepared before use.
The final DMSO experimental concentration was 0.1%.
MMTV_GR transcription activation activity experiment • [0458] 1) Inoculated cells: Fresh cells were inoculated into 384 white transparent bottom experimental plates at 4×10^3 cells/30 µL/well, and incubated at 37° C. 5% CO2 incubator for 24 hours. • [0459] 2) Compound preparation: The compound plate was prepared before the experiment, and the reference compound (dexamethasone) and the test compound of 4x concentration were prepared. Finally, the experimental plate of 4x concentration compound was obtained. • [0460] 3) Added compound: 10 µL of 4x compound was transferred with Bravo and added to cell plate. Incubated for 18 hours in a 37° C. 5% CO2 incubator. • [0461] 4) 30 µL of Bright-Glo fluorescent detection reagent was transferred to the cell plate. • [0462] 5) Centrifugal incubation for 2 minutes. • [0463] 6) The fluorescence value was measured with the Envision plate reader.
Positive control: 1000 nM dexamethasone (0.1% DMSO)
Negative control: 0.1% DMSO
Test compound: Maximum concentration of 1000 nM, 4-fold dilution, 10 wells in total, repeated.
Dexamethasone: Maximum concentration of 1000 nM, 4-fold dilution, 10 wells in total, repeated.
The graphing software GraphPad Prism5 was used to create the concentration curves of the tested compounds and calculate the IC50 values.

[3] = tested on: human peripheral blood mononuclear cells TNF-α; assay: Repression of TNF-α in human peripheral blood mononuclear cells (LPS, ELISA); assay type: cell-based; conditions: PBMC, 3-fold diluted; for IC50: read-out: hPBMC IC50; for Emax: maximum effect value
Protocol: Experimental purpose: To express the anti-inflammatory activity of the test compound at the cellular level according to the level of TNF-α in human peripheral blood mononuclear cells (hPBMC).
• [0488] 1) The frozen cells were quickly thawed by continuous stirring in a 37° C. water bath. • [0489] 2) 25 mL of fresh pre-heated thawed culture medium was added to a 50 mL centrifuge tube. Then the cells were added gently, drop by drop. • [0490] 3) Cells were centrifuged at 2000 rpm for 10 min (ascending speed: 9, descending speed: 1). • [0491] 4) The supernatant was discarded and the cell particles were resuspended in 25 mL of freshly pre-heated RPMI 1640 culture medium.
• [0493] 5) After thawing and resuscitating the suspended cells, the number of cells was counted and the total number of cells required for the experiment was calculated. • [0494] 6) The cell suspension was diluted with an appropriate volume of cell culture medium. • [0495] 7) The cell suspension was poured into a sterile disposable container. • [0496] 8) 100,000 cells/(100 µL) of cell suspension was transferred to each well of a 96-well plate. • [0497] 9) The cell plates were placed in humidified air, 5% CO2 incubator, 37° C. for 2 hours.
[…] In the second step, the serum-free culture medium was diluted 125 times, and the concentration of DMSO was 0.8%. Then 16.8 µL of the compound diluted in culture medium was transferred to a 100 µL cell plate, and the concentration of DMSO was 0.114%.
After adding the compound, the cell plates were incubated in a 37° C. 5% CO2 incubator for 1 hour.
In the first step, LPS was diluted with ultrapure water to a storage concentration of 1 mg/mL. In the second step, the storage concentration of LPS was diluted to 1 µg/mL in serum-free culture medium. In the third step, serum-free culture medium was 1666.666-fold diluted. Then 16.8 µL of LPS that has been diluted with culture medium was transferred to a 116.8 µL cell plate. At this time, the final concentration of DMSO was 0.1%. After adding LPS, the cell plate was put into a 37° C., 5% CO2 incubator and incubated for 18 hours.
• [0505] 1. The TNF-α antibody was diluted to 1× in the coating solution, and then 100 µL per well was added to a 96-well high-binding performance plate, and the plate was sealed with a membrane and placed at 4° C. for 18 hours. • [0506] 2. 2000 mL of wash buffer was prepared to 1x for later use.
• [0508] 3. After the plate was coated overnight, the coating solution was poured out and washed 3 times with 300 µL of washing buffer per well. • [0509] 4. After the plate was washed, 200 µL of sealing buffer was added to each well, and the plate was sealed with membrane. Incubated for one hour in a 25° C. incubator. • [0510] 5. The cell plates incubated for 18 hours were placed in a centrifuge for centrifugation, temperature: 25° C., speed: 2000 rpm, time: 10 min, ascending speed: 9, descending speed: 1. After centrifugation, 100 µL of cell supernatant from each well was transferred to a 3599 cell plate, and then placed in a 4° C. refrigerator for later use. • [0511] 6. The cell supernatant was diluted 40 times with sealing buffer and placed in a 4° C. refrigerator for later use, and the standard was also placed in a 4° C. refrigerator for later use. • [0512] 7. After the sealing was completed, the sealing solution was poured out and washed three times with 300 µL of washing buffer per well. • [0513] 8. The diluted cell supernatant samples and standards were added to the ELISA plate, and the plate was sealed with membrane. Then incubated for 2 hours in a 25° C. incubator. • [0514] 9. The liquid in the plate was poured out and washed 5 times with 300 µL of washing buffer per well. • [0515] 10. Antibodies were prepared and 100 µL was added to each well and the plate was sealed with sealing membrane. Then incubated for one hour in a 25° C. incubator. • [0516] 11. The liquid in the plate was poured out and washed 7 times with 300 µL of washing buffer per well. • [0517] 12. […]

[4] = In vivo pharmacokinetic properties study in male SD rats; conditions: rat, plasma, iv 2 mg/kg
Protocol: Experimental purpose: The purpose of this study was to determine the pharmacokinetic parameters of compounds in male SD rats.
Experimental methods: In this project, two male SD rats were intravenously administered with a dose of 2 mg/kg and a concentration of 0.4 mg/mL. Plasma samples were collected at 0 h (before administration) and 0.0833, 0.25, 0.5, 1, 2, 4, 6, 8, 24 h after administration. Then the collected samples were analyzed by LC-MS/MS and the data were collected. The collected analytical data were used to calculate the relevant pharmacokinetic parameters using Phoenix WinNonlin 6.3 software.

IC50 [1] [nM] | clearance [4] [mL/min/kg] | half-life ([4]; read-out: T½ (converted)) [h] | Vd ([4]; read-out: Vdss) [L/kg] | IC50 ([3]; absolute IC50, test Top concentration 500 nM, 8 concentration (**)) [nM] | Structure (SMILES) | repression on CYP3A4 (in words) [1] | Emax ([2]; HeLa, maximum effect value, positive control 1000 nM dexamethasone, read-out: TA (MMTV transcription activation activity) Effect) [%] | EC50 ([2]; absolute EC50, HeLa MMTV-luciferase cells, 18 h, max concentration 1000 nM, read-out: TA (MMTV transcription activation activity) EC50) [nM] | IC50 ([3]; absolute IC50, test Top concentration 1000 nM, 8 concentration (*)) [nM] | Emax ([3]; test Top concentration 1000 nM, 8 concentration (*)) [%] | Emax ([3]; test Top concentration 500 nM, 8 concentration (**)) [%]
15700 | – | – | – | – | C[C@H](NC(=O)C(C)(F)F)[C@H](Oc1ccc2c(cnn2-c2cn(C)nn2)c1)c1ccccc1 [WX053] | significantly improve the repression of CYP3A4 | – | – | – | – | –
– | – | – | – | – | C[C@H](NC(=O)C(C)(F)F)[C@H](Oc1ccc2c(cnn2-c2ccc3nncn3c2)c1)c1ccccc1 [WX022] | – | 101 | 1.59 | 2.42 | 90 | –
2950 | 4.25 | 1.99 | 0.56 | 57.4 | CC(C)[C@H](NC(=O)C(C)(F)F)[C@H](Oc1ccc2c(cnn2-c2ccc(=O)n(C)c2)c1)c1ccccc1 [AZD9567, reference compound] | moderate repression on CYP3A4 | – | – | – | – | 54.6

From patent US20230167068A1, “BENZOPYRAZOLE COMPOUND” (MEDSHINE DISCOVERY INC., priority 2019, published 2023)
